# Results: patent US4608381A, “Antiinflammatory 2-(trifluoroethylsulfonyl)benzimidazoles” (Boehringer Ingelheim Pharmaceuticals, Inc., priority 1985, dated 1986)
# Tests used:
# [1] = tested on: male CD rats; assay: Adjuvant-Induced Developing Arthritis Assay; assay type: in vivo; details: Rattus norvegicus, po, 336 h, 14 days from adjuvant injection, non-injected hind paw volume; for inhibition in vivo at 25 mg/kg: 25 mg/kg orally once daily; for inhibition in vivo at 50 mg/kg: 50 mg/kg orally once daily
# Description: This assay is used to determine the ability of compounds to affect the immunological processes involved in the induction and development of arthritis and represents a standard model for which there is good correlation with human efficacy. It is described and discussed in Newbould, B. B., Chemotherapy of Arthritis Induced in Rats by Mycobacterial Adjuvant., Brit. J. Pharmacol. 21:127-136 (1963) and Federation Proceedings, Models Used for the Study and Therapy of Rheumatoid Arthritis - Symposium of the American Society for Pharmacology and Experimental Therapeutics, Vol. 32, No. 2 (1973). The procedural details and results observed in the experiments reported here are as follows.
# (§1) Polyarthritis is induced in male CD rats (150-170 g) as follows. Heat-killed Mycobacterium butyricum (0.1 ml of a […] 5 mg/ml adjuvant suspension in light mineral oil) is injected subcutaneously into the plantar surface of the right hind foot of each animal. At least 10 rats are used in each test group. Animals are dosed orally with one of the compounds under assay immediately after adjuvant injection, and once daily for a total of 14 days. Untreated normal and arthritic control groups are used as comparison for test compound effect. Foot volumes are measured 24 hours after the final dose by mercury displacement to the lateral malleolus. Mean displacement volumes and their standard errors are calculated for the non-injected hind paws.
# The results are expressed as the percent of the mean displacement volume of the control observed in animals treated with the specified compound at the indicated daily dosage level and are as set forth in Table 1: […]
# [2] = tested on: Rats in which polyarthritis has become established; assay: Adjuvant-Induced Established Arthritis Assay; assay type: in vivo, rat; details: days 14-27, non-injected paw volume
# Description: as §1
# This assay is used to determine the ability of compounds to affect an established chronic inflammatory condition.
# Polyarthritis is induced as described in Example 8. Rats in which polyarthritis has become established are selected 14 days after receiving the adjuvant suspension. They are treated daily with oral doses of test compound for 14 days (days 14-27). Foot volumes of the non-injected paws are measured as in 8, 24 hours after the final dose. Untreated arthritic control groups are used as comparison for test compound effect as described in Example 8.
SMILES,inhibition in vivo at 25 mg/kg [1] [%],further results
"Cc1ccc2[nH]c(S(=O)(=O)CC(F)(F)F)nc2c1 [Example 1, 5-Methyl-2-(2,2,2-trifluoroethylsulfonyl)-1H-benzimidazole]",52,inhibition in vivo at 50 mg/kg [1]: 72%; % Inhibition ([2]; 50 mg/kg orally daily): 30%; % Inhibition ([2]; 75 mg/kg orally daily): 42%; % Inhibition ([2]; 100 mg/kg orally daily): 60%
"O=S(=O)(CC(F)(F)F)c1nc2cc(Cl)ccc2[nH]1 [Example 2, 5-Chloro-2-(2,2,2-trifluoroethylsulfonyl)-1H-benzimidozole]",28,
"O=S(=O)(CC(F)(F)F)c1nc2cc(Cl)c(Cl)cc2[nH]1 [Example 3, 5,6-Dichloro-2-(2,2,2-trifluoroethylsulfonyl)-1H-benzimidazole]",24,
"O=S(=O)(CC(F)(F)F)c1nc2ccccc2[nH]1 [Example 4, 2-(2,2,2-Trifluoroethylsulfonyl)-1H-benzimidazole]",52,% Inhibition ([2]; 50 mg/kg orally daily): 45%
"O=S(=O)(CC(F)(F)F)c1nc2cc(F)ccc2[nH]1 [Example 5, 5-Fluoro-2-(2,2,2-trifluoroethylsulfonyl)-1H-benzimidazole]",43,
"Cc1cc2nc(S(=O)(=O)CC(F)(F)F)[nH]c2cc1C [Example 6, 5,6-Dimethyl-2-(2,2,2-trifluoroethylsulfonyl)-1H-benzimidazole]",18,
"CCc1ccc2[nH]c(S(=O)(=O)CC(F)(F)F)nc2c1 [Example 7, 5-Ethyl-2-(2,2,2-trifluoroethylsulfonyl)-1H-benzimidazole]",34,
"Cc1cc2nc(S(=O)(=O)CC(F)(F)F)[nH]c2cc1F [Example 8, 6-Fluoro-5-methYl-2-(2,2,2-trifluoroethylsulfonyl)-1H-benzimidazole]",,inhibition in vivo at 50 mg/kg [1]: 64%
